{
  "source": "paper PMC8861095",
  "about": "“Neurotoxicological profile of the hallucinogenic compound 25I-NBOMe” (Scientific Reports, 2022)",
  "key": {"[1]": {"system": "rat primary cortical cultures", "set-up": "method as in PMID 31078573", "details": "30 μM; did not recover after 19 h of washout period; cited from earlier work"}, "DNA [2]": {"system": "DNA", "set-up": "method as in PMID 33337517", "details": "0.3 mg/kg; cited from earlier work"}, "SN4741 cells": {"system": "SN4741 cells", "details": "25–400 µM; cited from earlier work"}, "SH-SY5Y cells": {"system": "SH-SY5Y cells", "details": "cited from earlier work"}, "PC12 cells": {"system": "PC12 cells", "details": "25–400 µM; cited from earlier work"}, "DNA [3]": {"system": "DNA", "assay": "Alkaline comet assay on nuclei from frontal cortex and hippocampus", "type": "in vivo, rat", "details": "for Damaging effect on DNA compared with 25I-NBOMe: frontal cortex and hippocampus, LSD 0.05 mg/kg, MDMA 5 mg/kg, 25I-NBOMe 0.3 mg/kg; for DNA damage (tail moment): vs control; for Tail moment after four injections compared with the acute one: 5 mg/kg ip × 4 vs acute", "description": "Animals received single or multiple (once per day for seven days) subcutaneous injections of 25I-NBOMe dissolved in 0.9% NaCl at a dose of 0.3 mg/kg/2 ml. The control group was treated with 0.9% NaCl solution in the same way. All procedures were performed 72 h after the last injection. The time point of 72 h was chosen due to the possible generation of neurotoxicity via oxidative stress caused by reactive oxygen species (ROS). Exceptionally, for initial 25I-NBOMe brain distribution studies, rats received the drug in the dose of 1 and 10 mg/kg and were sacrificed 15 min after the drug administration. The rat blood plasma and brain tissues were collected immediately after rats’ decapitation. LSD (0.05 mg/kg, ip) was given daily for 7 days in a volume of 1 ml/kg, while MDMA 5 mg/kg, ip was injected in a volume of 2 ml/kg every second day (overall 4 injections).\nThe alkaline comet assay was performed with the use of CometAssay® Reagent Kit for Single Cell Gel Electrophoresis Assay. At 72 h after the acute and chronic treatment with 25I-NBOMe (0.3 mg/kg, sc × 7 days), LSD (0.05 mg/kg, ip × 7 days) or MDMA (5 mg/kg, ip × 4 doses every second day) animals were sacrificed by decapitation and the frontal cortex (that consist of the sum of FC and mPFC) and hippocampus were dissected. After homogenization and several purification and centrifugation stages (as described previously in[17]), the nuclear suspension was obtained using a sucrose gradient (2.8 M/2.6 M, bottom to top). The nuclear fraction was mixed with low melting point agarose and transferred immediately onto CometSlides™. The following steps, including membrane lysis, DNA unwinding, alkaline electrophoresis, and staining (SYBR® Gold), were carried out according to Trevigen CometAssay® protocol. Stained sections were acquired and analyzed under a fluorescence microscope (Nikon Eclipse50i, Japan) equipped with a camera and NIS Elements software. The data was analyzed using OpenComet software v.1.3 (cometbio.org), a plugin of ImageJ program v.1.47 (NIH, Bethesda, MD, USA). DNA damage was presented as a tail moment. Tail moment incorporates a measure of both the smallest detectable size of migrating DNA (reflected by the comet tail length) and the number of damaged pieces (represented by the intensity of DNA in the tail)."}, "[4]": {"set-up": "method as in PMID 20956470", "details": "cited from earlier work"}},
  "data": [
    {"smiles": "COc1cc(CCNCc2ccccc2OC)c(OC)cc1Br", "note": "[25B-NBOMe]", "values": [
      {"measurement": "Neuronal activity", "setting": "[1]", "value": "decreased neuronal activity"},
      {"measurement": "DNA damage in the rat frontal cortex", "setting": "DNA [2]", "value": "potent in damaging DNA"}
    ]},
    {"smiles": "COc1cc(CCNCc2ccccc2OC)c(OC)cc1Cl", "note": "[25C-NBOMe]", "values": [
      {"measurement": "Cell viability", "setting": "SN4741 cells", "value": "potent reduction"},
      {"measurement": "Cell viability", "setting": "SH-SY5Y cells; 25–400 µM", "value": "potent reduction"},
      {"measurement": "Potency to reduce SH-SY5Y cells in respect to methamphetamine", "setting": "SH-SY5Y cells", "value": 50, "unit": "times"},
      {"measurement": "Cell viability", "setting": "PC12 cells", "value": "potent reduction"}
    ]},
    {"smiles": "CCN(CC)C(=O)[C@@H]1C=C2c3cccc4[nH]cc(c34)C[C@H]2N(C)C1", "note": "[LSD, lysergic acid diethylamide]", "values": [
      {"measurement": "Damaging effect on DNA compared with 25I-NBOMe", "setting": "DNA [3]", "value": "weaker in its damaging effect on DNA than 25I-NBOMe"},
      {"measurement": "DNA damage after chronic administration compared with a single dose", "setting": "DNA [3]; frontal cortex, 0.05 mg/kg ip × 7 vs single, 72 h", "value": "significantly greater after chronic administration"},
      {"measurement": "DNA damage (tail moment)", "setting": "DNA [3]; frontal cortex, single and 7-day treatment 0.05 mg/kg ip, 72 h", "value": "caused DNA damage"},
      {"measurement": "DNA damage after repeated injections compared with a single dose", "setting": "DNA [3]; hippocampus, 0.05 mg/kg ip × 7 vs single, 72 h", "value": "higher DNA damage than the single dose"},
      {"measurement": "DNA damage (tail moment)", "setting": "DNA [3]; hippocampus, acute and chronic (× 7) 0.05 mg/kg ip, 72 h", "value": "significant increase in the tail moment value"}
    ]},
    {"smiles": "CNC(C)Cc1ccc2c(c1)OCO2", "note": "(centres unmarked) [MDMA, 3,4-methylenedioxymethamphetamine]", "values": [
      {"measurement": "Damaging effect on DNA compared with 25I-NBOMe", "setting": "DNA [3]", "value": "nearly equal to 25I-NBOMe in oxidative damage of DNA"},
      {"measurement": "Tail moment after four injections compared with the acute one", "setting": "DNA [3]; frontal cortex, 72 h", "value": "stronger increase in the tail moment value"},
      {"measurement": "DNA damage (tail moment)", "setting": "DNA [3]; frontal cortex, acute and chronic (4 injections every second day) 5 mg/kg ip, 72 h", "value": "exhibited DNA damaging properties"},
      {"measurement": "Tail moment after four injections compared with the acute one", "setting": "DNA [3]; hippocampus, 72 h", "value": "stronger increase in the tail moment value"},
      {"measurement": "DNA damage (tail moment)", "setting": "DNA [3]; hippocampus, acute and chronic (4 injections every second day) 5 mg/kg ip, 72 h", "value": "exhibited DNA damaging properties"}
    ]},
    {"smiles": "COc1cc(CCNCc2ccccc2OC)c(OC)cc1I", "note": "[^11C-CIMBI-5]", "values": [
      {"measurement": "Location in brain shortly after intravenous injection", "setting": "[4]", "value": "located in the cortex and the lower range in the cerebellum"}
    ]}
  ]
}
